# Test system: secondary follicles from in vitro cultured gonads
# Assay: In vitro growth culture of secondary follicle
# Type: cell-based, mouse
# Protocol: The secondary follicles obtained by the in vitro organ culture of the gonads from the fetuses was processed for in vitro growth culture. […] In this example, the culture was performed with the medium supplemented with PVP which is the high-molecular-weight compound. Furthermore, the inventor found out that oocytes can develop to functional eggs by dissociating a part of the cell layers between a granulosa cell layer and a thecal cell layer which constitute a secondary follicle. Accordingly, in this example, the in vitro culture of the follicle includes a step of partial dissociation between the granulosa cell layer and the thecal cell layer. More concretely, the in vitro culture of the follicle was performed as follows.
# After the culture of “1. In vitro organ culture of gonad” for 17 days mentioned above, the cultured gonads (ovaries) were transferred to L15 medium and the secondary follicles formed in the gonads were isolated from the gonads, using a fine Tungsten needle. The secondary follicles were further cultured in α-MEM supplemented with 2% (w/v) PVP, 5% FBS, and 0.1 IU/mL FSH (FOLLISTIM Injection 50; MSD). The secondary follicles were cultured on a Millicell membrane (0.4-μm pore size, 27-mm diameter; Merck Millipore) in a 35-mm culture dish (Falcon, Corning). On day 3 of the culture, the secondary follicles were transferred to 0.1% collagenase type I (Worthington Biochemicals) containing L15 medium and treated for 15 min at 37° C. Then, the theca cell layer of the secondary follicles was removed by pipetting with a pulled fine-glass capillary. Fifty to 60 secondary follicles were cultured on Transwell®-COL or Millicell membranes for another 9 to 13 days at 37° C. in the medium under 5% CO2 and 95% air. The inside and outside of the membrane insert were filled with 1 mL and 2 mL medium, respectively. Approximately half the medium in each well was replaced with fresh medium every other day.
smiles,measurement,setting,value
"C[C@]12CC[C@@H]3c4ccc(O)cc4C[C@@H](CCCCCCCCC[S+]([O-])CCCC(F)(F)C(F)(F)F)[C@H]3[C@@H]1CC[C@@H]2O (stereo partly drawn) [ICI, 7α, 17β-[9-([4,4,5,5,5-pentafluoropentyl]sulfinyl)nonyl]estra-1,3,5(10)-triene-3,17-diol]","No. of collected COCs, proportion to the number of collected follicles",FBS/1 μM ICI group (ICI day 5-11),53.0%
same,No. of collected COCs,"FBS/1 μM ICI group (ICI day 5-11), 19 cultured gonads",340
same,"No. of collected COCs, proportion to the number of collected follicles",FBS/5 μM ICI group (ICI day 5-11),57.1%
same,No. of collected COCs,"FBS/5 μM ICI group (ICI day 5-11), 6 cultured gonads",178
same,"No. of collected COCs, proportion to the number of collected follicles",FBS/10 μM ICI group (ICI day 5-11),55.6%
same,No. of collected COCs,"FBS/10 μM ICI group (ICI day 5-11), 6 cultured gonads",281
same,average diameter of the oocytes obtained by the in vitro culture,"FBS/10 μM ICI group, n=85",80.0 μm
same,"No. of collected COCs, proportion to the number of collected follicles",Vitrification FBS/1 μM ICI (vitrified-warmed gonads),68.4%
same,No. of collected COCs,"Vitrification FBS/1 μM ICI (vitrified-warmed gonads), 4 cultured gonads",39
